Measurements published in patent US5939560A, “Inhibitors of DP-mediated processes, compositions and therapeutic methods thereof” (Ferring B.V., priority 1993, dated 1999).
Where two headings read alike, the source gives them in different places.

Target: pure human DP-IV (Homo sapiens, UniProt P27487)
Test: Inhibition of pure human DP-IV in vitro, fluorescent substrate Ala-Pro-AFC, Ki from Dixon plots
Protocol: All compounds were tested in vitro against pure human DP-IV (purchased from M & E, Copenhagen, Denmark). […] Ki values were determined using Dixon plots.

Chain of pure human DP-IV (P27487 whole entry): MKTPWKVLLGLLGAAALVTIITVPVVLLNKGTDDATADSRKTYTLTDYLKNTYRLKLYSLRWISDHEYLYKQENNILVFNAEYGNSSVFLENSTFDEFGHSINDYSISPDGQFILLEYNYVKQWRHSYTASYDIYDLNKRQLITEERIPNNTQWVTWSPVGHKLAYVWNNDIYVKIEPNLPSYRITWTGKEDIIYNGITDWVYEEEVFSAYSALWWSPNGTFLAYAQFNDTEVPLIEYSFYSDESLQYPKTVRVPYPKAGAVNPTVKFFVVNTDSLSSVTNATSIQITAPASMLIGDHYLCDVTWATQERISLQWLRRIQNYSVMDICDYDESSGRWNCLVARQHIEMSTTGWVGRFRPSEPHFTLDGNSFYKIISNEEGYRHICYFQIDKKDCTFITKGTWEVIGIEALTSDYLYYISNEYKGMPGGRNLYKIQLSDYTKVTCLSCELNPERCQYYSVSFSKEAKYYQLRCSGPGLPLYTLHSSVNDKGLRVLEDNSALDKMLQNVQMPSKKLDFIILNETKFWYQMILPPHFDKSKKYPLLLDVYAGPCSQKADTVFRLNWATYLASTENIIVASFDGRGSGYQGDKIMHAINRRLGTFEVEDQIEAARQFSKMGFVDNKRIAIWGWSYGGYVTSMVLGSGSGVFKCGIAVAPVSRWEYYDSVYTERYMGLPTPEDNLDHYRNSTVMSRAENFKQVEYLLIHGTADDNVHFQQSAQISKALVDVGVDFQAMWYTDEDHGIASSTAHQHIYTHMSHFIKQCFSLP

Ki [nM] | Ki (read-out: Ki against DP-IV, pure human DP-IV, pH 7.8, substrate Ala-Pro-AFC, Dixon plots) [nM] | Compound
250 |  | N[C@@H](CCCCNC(=O)CCCNS(=O)(=O)c1c(F)c(F)c(F)c(F)c1F)C(=O)N1CCCC1 [compound 110, H-Lys[CO(CH2)3 NHSO2 Pfp]Prl]
150 |  | N[C@@H](CCC(=O)NCCCCCC(=O)OCc1ccccc1)C(=O)N1CCCC1 [compound 59]
9.8 |  | N[C@H]1CCCC[C@@H]1C(=O)N1CCC[C@H]1C=O [compound 38]
940 |  | CCCCCCO[C@H](C)[C@H](N)C(=O)N1CCCC1 [compound 143, H-Thr[(CH2)5 CH3]pyrrolidide]
17 |  | N#C[C@@H]1CCCN1C(=O)[C@@H](N)CCCCNC(=O)CCCCCCCN [compound 136]
0.5 |  | N#C[C@@H]1CSCN1C(=O)[C@@H](N)C1CCCC1 [compound 23]
37 |  | N#C[C@@H]1CCCN1C(=O)[C@H]1CC=CC[C@@H]1N [compound 35]
2 |  | CC1(C)C2CC3OB(C4CCCN4C(=O)C4CC=CCC4N)OC3(C)C1C2 (centres unmarked) [compound 44]
0.5 |  | N#C[C@@H]1CCCN1C(=O)[C@@H](N)CCC(=O)NCCCCCC(=O)OCc1ccccc1 [compound 97]
 | 1700 | CC[C@H](C)[C@H](N)/C=C1\CCC[C@H]1C#N [compound 150]
180 |  | N[C@@H](CCC(=O)NCCCCCCC(=O)NCCCCCC(=O)O)C(=O)N1CCCC1 [compound 66]
